Entries after “also recorded” stand apart in the source; their conditions may differ.
B1: endostatin: recombinant human endostatin, 22kD protein expressed by HEK293 cells stably transfected with plasmid pGT60hEndo (HEK293endo) (protein, UniProt P39060 1572-1754, looked up)
Endostatin: HSHRDFQPVLHLVALNSPLSGGMRGIRGADFQCFQQARAVGLAGTFRAFLSSRLQDLYSIVRRADRAAVPIVNLKDELLFPSWEALFSGSEGPLKPGARIFSFDGKDVLRHPTWPQKSVWHGSDPNGRRLTESYCETWRTEAPSATGQASSLLGGRLLGQSAASCHHAYIVLCIENSFMTASK
modifications: Endostatin

Columns and labels:
[1] = tested on: HDMEC-GT derived microvessels; experiment: SCID mice xenografting of HDMEC-GT in Matrigel with pro-angiogenic factors; human vessel density by human type IV collagen micromorphometry; format: in vivo, human cells in SCID mice; details: for human vessel density (human type IV collagen micromorphometry), result in words: VEGF 2 μg/ml or FGF-2 150 ng/ml in Matrigel with HDMEC-GT, two weeks after implantation, versus controls
Protocol: (§1) This procedure is based on a modification of the mouse angiogenesis model previously described^41. Two-three week old male or female SCID mice (Taconic, Germantown, N.Y.) were used as hosts for all implants. Primary HDMEC and HDMEC-T were harvested, washed twice and re-suspended in serum-free EGM-2 basal medium at the concentration of 1×10^5/μl. Ten μl of cells were mixed with 0.5 ml of Matrigel on ice and the mixture was implanted in the ventral midline thoracic tissue of each mouse by subcutaneous injection using a #25 needle. Up to three separate injections could be performed on a single mouse. For some experiments, recombinant human VEGF165 (2 μg/ml) (R&D systems, Minneapolis, Minn.) or bovine FGF-2 (150 ng/ml) (R&D systems, Minneapolis, Minn.) were added to the mixture. When tumor cells (HT1080 and 293, ATCC) or primary human dermal fibroblasts^38 were injected, the procedure remained the same except basal D-MEM medium replaced EGM-2.
(§2) Matrigel implants were removed at 1, 2, 4 and 6 wk following xenografting, fixed in 10% buffered formalin overnight, paraffin-embedded and sectioned. H&E stained thin sections were prepared at Pan-insular Histopathology laboratory (Los Gatos, Calif.). For immunofluoresence, thin sections were deparaffinized and antigens retrieved in 10 mM citric acid (pH 6.0) by microwaving sections for 2×7 min. Sections were then incubated with anti-human type IV collagen IgG (Sigma, St. Louis, Mo.) primary antibody, followed by washing and Cy-3 conjugated secondary IgG according to standard protocols. […] For micromorphometry, 5 separate 20× fields were randomly selected per tissue section and the number of annular structures were counted and averaged. Unless specifically stated otherwise, 3 different sections were viewed per implant and replicate implants were grafted for each experimental condition (FIGS. 3 and 6).

[2] = tested on: host murine blood vessels; experiment: Host vessel invasion of Matrigel implants in SCID mice without human EC; format: in vivo; details: FGF-2 alone in Matrigel, no HDMEC
Protocol: as §1
Matrigel implants were removed at 1, 2, 4 and 6 wk following xenografting, fixed in 10% buffered formalin overnight, paraffin-embedded and sectioned. H&E stained thin sections were prepared at Pan-insular Histopathology laboratory (Los Gatos, Calif.). […] For micromorphometry, 5 separate 20× fields were randomly selected per tissue section and the number of annular structures were counted and averaged. […]

[3] = tested on: HDMEC-GT derived microvessels; experiment: Endostatin blocking experiments: HDMEC-GT co-implanted with endostatin cDNA-transfected HEK293 cells in Matrigel in SCID mice; format: in vivo, human cells in SCID mice; details: 1:10 ratio HEK293endo to HDMEC-GT, implants removed after one and two weeks, versus sham-transfected HEK293lacZ
Protocol: as §2
For digital analysis of eGFP fluorescence images we used a novel algorithm (Moss Filter™) to determine the total amount of vascularization in each implant section. This filter determines whether or not each pixel is part of the fluorescently-labeled vascular region. The filter converts the original (8-bit) digital image into a binary image. Pixel values equal to 1 indicate vascularization, whereas zero values indicate no vascularization. The total amount of vascularization in each implant section is obtained by summing all the values in the binary image.
Inhibition of in vivo vessel formation by local delivery of human endostatin was accomplished as follows: The plasmid pGT60hEndo, expressing recombinant human endostatin (InvivoGen, San Diego, Calif.), was stably transfected into human embryonic kidney (HEK293) cell line by calcium phosphate transfection (Invitrogen, Carlsbad, Calif.). […] HEK293 cells expressing lacZ served as a control for both Western blots and grafting experiments. The cell implantation procedure was the same as that described above except that 1×10^5 (or 10^4 or 10^3) transfected HEK were mixed with HDMEC-GT immediately prior to implantation. Grafts were examined at both one week and two after injection and sections were analyzed by both micromorphometry and eGFP as previously described.

[4] = listed as recombinant human endostatin

Molecule	human vessel density (human type IV collagen micromorphometry), result in words [1]	host vessel invasion of Matrigel implants [2]	increased vessel density relative to controls ([1]; VEGF 2 μg/ml mixed with HDMEC-GT and Matrigel, two weeks after grafting, human type IV collagen micromorphometry)	vessel density by micromorphometry (human type IV collagen staining) [3]	vessel density by total fluorescence intensity extracted from binary images of eGFP (Moss Filter) [3]	vessel density by micromorphometry (human type IV collagen staining) [3, 4]	vessel density by total fluorescence intensity extracted from binary images of eGFP (Moss Filter) [3, 4]
FGF-2: bovine FGF-2 (R&D systems), known pro-angiogenic factor	statistically increased human vessel density	stimulated; also recorded: marked host vessel invasion	–	–	–	–	–
VEGF	increased vessel density; also recorded: did not demonstrate statistical significance	–	20-30%	–	–	–	–
B1	–	–	–	statistically significant loss of vessel density	statistically significant loss of vessel density	decreased microvessel formation	decreased microvessel formation

Source: patent US6906237B2, “Vivo assay for anti angiogenic compounds” (priority 2001, dated 2005)
